Starred links: 1 amine or outer side, 2 acyl side, 3 side chain; linkers in the order of their positions; H or OH if unused. Non-standard residues stand in square brackets, D forms with d. Residues, ends and D or L forms follow the SMILES beside them. Azetidine3carboxylic = O=C(C1CN([*:1])C1)[*:2]; Phe(4-Cl) = N[C@@H](Cc1ccc(Cl)cc1)C(=O)O; Phe(3-F) = N[C@@H](Cc1cccc(F)c1)C(=O)O; Phe(4-F) = N[C@@H](Cc1ccc(F)cc1)C(=O)O; 3Pal = N[C@@H](Cc1cccnc1)C(=O)O; 2Thi = N[C@@H](Cc1cccs1)C(=O)O; NMeL = CN[C@@H](CC(C)C)C(=O)O; dNMeV = CN[C@@H](C(=O)O)C(C)C; NMeNle = CCCC[C@H](NC)C(=O)O; Tle = CC(C)(C)[C@H](N)C(=O)O; dPip = O=C(O)[C@H]1CCCCN1; NMeA = CN[C@@H](C)C(=O)O; Nme = COCCNCC(=O)O
Molecular target: T1, Human MDM2 (HDM2) 1-116 (Homo sapiens, UniProt Q00987)
T1 construct: Human MDM2 (HDM2) 1-116
Assay: Fluorescence polarization assay, MDM2/p53 (Table 3)
Type: binding
Experimental: (§1) Human MDM2 (HDM2) 1-116 (20 μL) and FITC-labeled p53 (18-26), 50 nM and 10 nM respectively in 10 mM Tris, 50 mM NaCl, 0.01% Tween20, and 1 mM DTT at pH 7.4 were dispensed into an opaque, black, 384 well plate. Compounds dissolved in DMSO were pin transferred (˜200 nL) to the 384 well plate containing the MDM2/p53 solution. After incubation for 10 minutes, the fluorescence polarization was read on a Molecular Devices SpectraMax plate reader equipped with a Fluorescein FP cartridge. In addition to probe alone (positive control) and probe/MDM2 (negative control), a titration of linear p53(18-26) was included on every plate as an additional control. IC50 values were fit using either Prism or Collaborative Drug Discovery.
as §1, with “and FAM-labeled RFMDYWEGL-NH2,” for “and FITC-labeled p53 (18-26),”, “NaCl, 0.010%” for “NaCl, 0.01%”, “transferred (˜100-200” for “transferred (˜200”, “for 60” for “for 10”

T1 sequence (Q00987 1-116): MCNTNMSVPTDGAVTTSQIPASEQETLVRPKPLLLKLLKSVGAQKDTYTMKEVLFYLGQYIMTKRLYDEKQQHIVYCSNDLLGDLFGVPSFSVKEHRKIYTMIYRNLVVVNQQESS

Row | IC50 [µM] | SMILES
1 | 1 to 2.5 | COCCN1CC(=O)N(C)[C@@H](C)C(=O)N[C@@H](Cc2ccc(F)cc2)C(=O)N(C)[C@@H](C)C(=O)N[C@@H](Cc2ccc(Cl)cc2)C(=O)N2CCCC[C@@H]2C(=O)N2CCC[C@H]2C(=O)N[C@@H](Cc2ccccc2)C(=O)N[C@@H](C(C)(C)C)C(=O)N[C@@H](Cc2cccc(F)c2)C1=O [Compound 22, COCCN1CC(=O)N(C)[C@@H](C)C(=O)N[C@@H](Cc2ccc(F)cc2)C(=O)N(C)[C@@H](C)C(=O)N[C@@H](Cc2ccc(Cl)cc2)C(=O)N2CCCC[C@@H]2C(=O)N2CCC[C@H]2C(=O)N[C@@H](Cc2ccccc2)C(=O)N[C@H](C(=O)N[C@@H](Cc2cccc(F)c2)C1=O)C(C)(C)C] (cyclo(F[Tle][Phe(3-F)][Nme][NMeA][Phe(4-F)][NMeA][Phe(4-Cl)][dPip]P))
2 | < 1 | CC(C)C[C@H]1C(=O)N[C@@H](CC(=O)O)C(=O)N[C@@H](Cc2ccc(F)cc2)C(=O)N[C@@H](CCC(=O)O)C(=O)N[C@@H](Cc2ccccc2)C(=O)N2CCC[C@@H]2C(=O)N2CCC[C@H]2C(=O)N[C@@H](Cc2cccs2)C(=O)N[C@@H](CCC(=O)O)C(=O)N[C@@H](Cc2c[nH]c3ccccc23)C(=O)N1C [Compound 5, [H]OC(=O)CC[C@@H]1NC(=O)[C@H](Cc2cccs2)NC(=O)[C@@H]2CCCN2C(=O)[C@H]2CCCN2C(=O)[C@H](Cc2ccccc2)NC(=O)[C@H](CCC(=O)O[H])NC(=O)[C@H](Cc2ccc(F)cc2)NC(=O)[C@H](CC(=O)O[H])NC(=O)[C@H](CC(C)C)N(C)C(=O)[C@H](Cc2cn([H])c3ccccc23)NC1=O] (cyclo([2Thi]EW[NMeL]D[Phe(4-F)]EF[dP]P))
3 | < 1 | CC(C)C[C@H]1C(=O)N[C@@H](CC(=O)O)C(=O)N[C@@H](Cc2c[nH]c3ccccc23)C(=O)N[C@@H](CCC(=O)O)C(=O)N[C@@H](Cc2ccccc2)C(=O)N2CCC[C@@H]2C(=O)N2CCC[C@H]2C(=O)N[C@@H](Cc2ccc(F)cc2)C(=O)N[C@@H](CCC(=O)O)C(=O)N[C@@H](Cc2ccc(Cl)cc2)C(=O)N1C [Compound 6, [H]OC(=O)CC[C@@H]1NC(=O)[C@H](Cc2cn([H])c3ccccc23)NC(=O)[C@H](CC(=O)O[H])NC(=O)[C@H](CC(C)C)N(C)C(=O)[C@H](Cc2ccc(Cl)cc2)NC(=O)[C@H](CCC(=O)O[H])NC(=O)[C@H](Cc2ccc(F)cc2)NC(=O)[C@@H]2CCCN2C(=O)[C@H]2CCCN2C(=O)[C@H](Cc2ccccc2)NC1=O] (cyclo([Phe(4-F)]E[Phe(4-Cl)][NMeL]DWEF[dP]P))
4 | < 1 | COCCN1CC(=O)N(C)[C@@H](C)C(=O)N[C@@H](Cc2ccc(F)cc2)C(=O)N(C)[C@@H](C)C(=O)N[C@@H](Cc2ccc(Cl)cc2)C(=O)N(C)[C@H](C(C)C)C(=O)N2CCC[C@H]2C(=O)N[C@@H](Cc2cccs2)C(=O)N[C@@H](C(C)(C)C)C(=O)N[C@@H](Cc2cccnc2)C1=O [Compound 17, COCCN1CC(=O)N(C)[C@@H](C)C(=O)N[C@@H](Cc2ccc(F)cc2)C(=O)N(C)[C@@H](C)C(=O)N[C@@H](Cc2ccc(Cl)cc2)C(=O)N(C)[C@H](C(C)C)C(=O)N2CCC[C@H]2C(=O)N[C@@H](Cc2cccs2)C(=O)N[C@H](C(=O)N[C@@H](Cc2cccnc2)C1=O)C(C)(C)C] (cyclo([2Thi][Tle][3Pal][Nme][NMeA][Phe(4-F)][NMeA][Phe(4-Cl)][dNMeV]P))
5 | 2.5 to 5 | C[C@H]1C(=O)N[C@@H](Cc2ccc(Cl)cc2)C(=O)N2CCCC[C@@H]2C(=O)N2CCC[C@H]2C(=O)N[C@@H](Cc2ccccc2)C(=O)N[C@@H](CCC(=O)O)C(=O)N[C@@H](Cc2ccc(O)cc2)C(=O)N2CCC[C@@H]2C(=O)N(C)[C@@H](C)C(=O)N[C@@H](Cc2ccc(F)cc2)C(=O)N1C [Compound 8, [H]OC(=O)CC[C@@H]1NC(=O)[C@H](Cc2ccccc2)NC(=O)[C@@H]2CCCN2C(=O)[C@H]2CCCCN2C(=O)[C@H](Cc2ccc(Cl)cc2)NC(=O)[C@H](C)N(C)C(=O)[C@H](Cc2ccc(F)cc2)NC(=O)[C@H](C)N(C)C(=O)[C@H]2CCCN2C(=O)[C@H](Cc2ccc(O[H])cc2)NC1=O] (cyclo(EY[dP][NMeA][Phe(4-F)][NMeA][Phe(4-Cl)][dPip]PF))
6 | < 1 | COCCN1CC(=O)N(C)[C@@H](C)C(=O)N[C@@H](Cc2ccc(F)cc2)C(=O)N[C@@H](C(C)(C)C)C(=O)N[C@@H](Cc2ccc(Cl)cc2)C(=O)N2CCCC[C@@H]2C(=O)N2CCC[C@H]2C(=O)N[C@@H](Cc2ccccc2)C(=O)N[C@@H](C(C)(C)C)C(=O)N[C@@H](Cc2cccnc2)C1=O [Compound 29, COCCN1CC(=O)N(C)[C@@H](C)C(=O)N[C@@H](Cc2ccc(F)cc2)C(=O)N[C@H](C(=O)N[C@@H](Cc2ccc(Cl)cc2)C(=O)N2CCCC[C@@H]2C(=O)N2CCC[C@H]2C(=O)N[C@@H](Cc2ccccc2)C(=O)N[C@H](C(=O)N[C@@H](Cc2cccnc2)C1=O)C(C)(C)C)C(C)(C)C] (cyclo([3Pal][Nme][NMeA][Phe(4-F)][Tle][Phe(4-Cl)][dPip]PF[Tle]))
7 | ≥ 5 | CCCC[C@H]1C(=O)N[C@@H](Cc2ccccc2)C(=O)N2CCC[C@@H]2C(=O)N2CCC[C@H]2C(=O)N[C@@H](Cc2ccccc2)C(=O)N(C)[C@@H](CCCC)C(=O)N[C@@H](Cc2c[nH]c3ccccc23)C(=O)N(C)[C@@H](CC(C)C)C(=O)N[C@@H](CC(=O)O)C(=O)N[C@@H](Cc2c[nH]c3ccccc23)C(=O)N1C [Compound 7, [H]OC(=O)C[C@@H]1NC(=O)[C@H](CC(C)C)N(C)C(=O)[C@H](Cc2cn([H])c3ccccc23)NC(=O)[C@H](CCCC)N(C)C(=O)[C@H](Cc2ccccc2)NC(=O)[C@@H]2CCCN2C(=O)[C@H]2CCCN2C(=O)[C@H](Cc2ccccc2)NC(=O)[C@H](CCCC)N(C)C(=O)[C@H](Cc2cn([H])c3ccccc23)NC1=O] (cyclo(F[NMeNle]W[NMeL]DW[NMeNle]F[dP]P))
8 | < 1 | C[C@H]1C(=O)N[C@@H](Cc2ccc(F)cc2)C(=O)N[C@@H](C(C)(C)C)C(=O)N[C@@H](Cc2ccc(Cl)cc2)C(=O)N2CCCC[C@@H]2C(=O)N2CCC[C@H]2C(=O)N[C@@H](Cc2ccccc2)C(=O)N2CC(C2)C(=O)N[C@@H](Cc2cccnc2)C(=O)N2CCC[C@@H]2C(=O)N1C [Compound 19, C[C@@H]1N(C)C(=O)[C@H]2CCCN2C(=O)[C@H](Cc2cccnc2)NC(=O)C2CN(C2)C(=O)[C@H](Cc2ccccc2)NC(=O)[C@@H]2CCCN2C(=O)[C@H]2CCCCN2C(=O)[C@H](Cc2ccc(Cl)cc2)NC(=O)[C@@H](NC(=O)[C@H](Cc2ccc(F)cc2)NC1=O)C(C)(C)C] (cyclo([3Pal][dP][NMeA][Phe(4-F)][Tle][Phe(4-Cl)][dPip]PF[Azetidine3carboxylic]))
9 | 1 to 2.5 | COCCN1CC(=O)N(C)[C@@H](C)C(=O)N[C@@H](Cc2ccc(F)cc2)C(=O)N(C)[C@@H](C)C(=O)N[C@@H](Cc2ccc(Cl)cc2)C(=O)N(C)[C@H](C(C)C)C(=O)N2CCC[C@H]2C(=O)N[C@@H](Cc2ccccc2)C(=O)N[C@@H](C(C)(C)C)C(=O)N[C@@H](Cc2cccc(F)c2)C1=O [Compound 24, COCCN1CC(=O)N(C)[C@@H](C)C(=O)N[C@@H](Cc2ccc(F)cc2)C(=O)N(C)[C@@H](C)C(=O)N[C@@H](Cc2ccc(Cl)cc2)C(=O)N(C)[C@H](C(C)C)C(=O)N2CCC[C@H]2C(=O)N[C@@H](Cc2ccccc2)C(=O)N[C@H](C(=O)N[C@@H](Cc2cccc(F)c2)C1=O)C(C)(C)C] (cyclo(F[Tle][Phe(3-F)][Nme][NMeA][Phe(4-F)][NMeA][Phe(4-Cl)][dNMeV]P))

Row | SMILES | IC50 [µM]
10 | COCCN1CC(=O)N(C)[C@@H](C)C(=O)N[C@@H](Cc2ccc(F)cc2)C(=O)N(C)[C@@H](C)C(=O)N[C@@H](Cc2ccc(Cl)cc2)C(=O)N2CCCC[C@@H]2C(=O)N2CCC[C@H]2C(=O)N[C@@H](Cc2ccccc2)C(=O)N[C@@H](C(C)(C)C)C(=O)N[C@@H](Cc2ccc(O)cc2)C1=O [Compound 30, [H]Oc1ccc(C[C@@H]2NC(=O)[C@@H](NC(=O)[C@H](Cc3ccccc3)NC(=O)[C@@H]3CCCN3C(=O)[C@H]3CCCCN3C(=O)[C@H](Cc3ccc(Cl)cc3)NC(=O)[C@H](C)N(C)C(=O)[C@H](Cc3ccc(F)cc3)NC(=O)[C@H](C)N(C)C(=O)CN(CCOC)C2=O)C(C)(C)C)cc1] (cyclo(F[Tle]Y[Nme][NMeA][Phe(4-F)][NMeA][Phe(4-Cl)][dPip]P)) | 2.5 to 5
11 | COCCN1CC(=O)N(C)[C@@H](C)C(=O)N[C@@H](Cc2ccc(F)cc2)C(=O)N(C)[C@@H](C)C(=O)N[C@@H](Cc2ccc(Cl)cc2)C(=O)N(C)[C@H](C(C)C)C(=O)N2CCC[C@H]2C(=O)N[C@@H](Cc2ccccc2)C(=O)N[C@@H](C(C)(C)C)C(=O)N[C@@H](Cc2ccc(O)cc2)C1=O [Compound 14, [H]Oc1ccc(C[C@@H]2NC(=O)[C@@H](NC(=O)[C@H](Cc3ccccc3)NC(=O)[C@@H]3CCCN3C(=O)[C@@H](C(C)C)N(C)C(=O)[C@H](Cc3ccc(Cl)cc3)NC(=O)[C@H](C)N(C)C(=O)[C@H](Cc3ccc(F)cc3)NC(=O)[C@H](C)N(C)C(=O)CN(CCOC)C2=O)C(C)(C)C)cc1] (cyclo(F[Tle]Y[Nme][NMeA][Phe(4-F)][NMeA][Phe(4-Cl)][dNMeV]P)) | 1 to 2.5

Reference: patent US20220411471A1, “CELL-PERMEABLE CYCLIC PEPTIDES AND USES THEREOF” (Unnatural Products Inc., priority 2019, published 2022)
